Laboratory results published in article PMC9030381, “The Discovery of Potent SHP2 Inhibitors with Anti-Proliferative Activity in Breast Cancer Cell Lines” (International Journal of Molecular Sciences, 2022).

Key:
SHP2 = biological target: T1, SHP2 (Homo sapiens, UniProt Q06124); experiment: Enzymatic SHP2 inhibition assay (pNPP phosphatase activity); format: biochemical; settings: for inhibition at 100 µM: read-out: inhibition of SHP2 enzyme; for IC50: pNPP substrate, read-out: SHP2 Obtained IC50
T1 construct: purchased BPS Bioscience, Inc., San Diego, CA, USA
T1 sequence (Q06124 1-593): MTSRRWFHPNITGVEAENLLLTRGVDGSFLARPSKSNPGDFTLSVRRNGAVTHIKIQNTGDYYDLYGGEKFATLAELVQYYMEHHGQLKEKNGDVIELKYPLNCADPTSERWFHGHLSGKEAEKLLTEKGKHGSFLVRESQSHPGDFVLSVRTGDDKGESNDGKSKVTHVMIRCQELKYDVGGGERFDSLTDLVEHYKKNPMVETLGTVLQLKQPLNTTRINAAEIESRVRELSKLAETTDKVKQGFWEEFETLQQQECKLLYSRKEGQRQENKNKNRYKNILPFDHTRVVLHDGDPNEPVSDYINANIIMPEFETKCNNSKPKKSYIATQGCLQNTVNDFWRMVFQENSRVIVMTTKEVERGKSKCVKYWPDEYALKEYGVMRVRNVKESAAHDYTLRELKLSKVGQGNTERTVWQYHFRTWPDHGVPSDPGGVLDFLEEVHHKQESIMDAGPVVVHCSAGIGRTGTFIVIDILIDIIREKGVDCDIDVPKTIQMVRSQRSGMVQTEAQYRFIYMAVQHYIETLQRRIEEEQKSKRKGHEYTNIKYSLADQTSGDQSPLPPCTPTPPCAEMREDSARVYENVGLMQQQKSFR
Procedure: Phosphatase Activity Assay (PTP) using p-nitrophenyl phosphate (pNPP) as a substrate was carried out in a total volume of 100 µL. This was done by monitoring the increase in phosphatase absorbance at 405 nm in the presence of the substrate using 96-well microplate reader (Thermo Scientific Multiskan GO, Waltham, MA, USA). The standard reaction mixture consisted of PTP buffer (100 mM NaCl, 2 mM EDTA, 50 mM HEPES, 3 mM DTT, pH 7.4), 100 nM of Shp2 (BPS Bioscience, Inc., San Diego, CA, USA), and 1 mM of pNPP incubated for 90 min at 30 °C. The enzymatic reaction was stopped by the addition of 50 µL of 5 M NaOH. For inhibition reaction, SHP2 enzyme was preincubated with 100 µM compound or their vehicle (DMSO) for 5 min at 37 °C, prior to the incubation with pNPP substrate for 90 min at 30 °C. The same method was used to calculate IC50 values using GraphPad Prism software 8.0 (San Diego, CA, USA). Wells with SHP2 substrate and without compounds were considered controls (enzyme activity is 100%).

SHP1 = SHP1 (Homo sapiens, UniProt P29350); experiment: Enzymatic SHP1 inhibition assay (selectivity); format: biochemical; settings: read-out: SHP1 Obtained IC50
Chain of SHP1 (P29350 whole entry): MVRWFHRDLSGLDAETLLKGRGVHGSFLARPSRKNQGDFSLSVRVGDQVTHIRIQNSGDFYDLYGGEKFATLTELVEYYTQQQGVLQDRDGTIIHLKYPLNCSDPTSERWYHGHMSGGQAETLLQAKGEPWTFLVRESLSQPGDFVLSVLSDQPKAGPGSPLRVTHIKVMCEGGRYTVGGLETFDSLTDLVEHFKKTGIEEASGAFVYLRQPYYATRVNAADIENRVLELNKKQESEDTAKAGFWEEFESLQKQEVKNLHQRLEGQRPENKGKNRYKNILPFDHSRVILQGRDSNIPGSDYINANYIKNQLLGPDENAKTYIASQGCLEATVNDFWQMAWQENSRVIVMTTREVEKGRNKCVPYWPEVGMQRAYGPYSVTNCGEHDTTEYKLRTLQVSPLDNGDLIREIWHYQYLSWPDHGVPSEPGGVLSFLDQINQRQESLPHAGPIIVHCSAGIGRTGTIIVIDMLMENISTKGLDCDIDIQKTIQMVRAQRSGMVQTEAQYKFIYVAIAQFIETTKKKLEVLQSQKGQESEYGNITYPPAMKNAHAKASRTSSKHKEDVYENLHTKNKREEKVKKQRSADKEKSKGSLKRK

MCF-7 [1] = experiment: Cell proliferative assay (DAPI cell count); format: cell-based; settings: at 20 μM, 48 h, in comparison with the vehicle
Procedure: (§1) The 5 × 10^3 cells/well of MCF-7 or MDA-MB-231cell-lines were seeded in 96 well plates. The next day, cells were treated with 0.16, 0.8, 4, and 20 µM of NSC 13030, 24198, 57774, 137420, or DMSO (Sigma-Aldrich–Cat D9170, St. Louis, MO, USA) as control. After 48 h of incubation, cells were stained with DAPI (Thermo Fischer–Cat R37606, Waltham, MA, USA) and images of the entire wells were taken with a 20× objective and a DAPI filter cube using Lionheart FX automated microscope. The image analysis and cell counts were done using Gen5 software. All conditions were done in triplicates.

MCF-7 [2] = experiment: Cell viability assay (CellTiter 96 AQueous One); format: cell-based; settings: at 20 μM, 48 h
Procedure: (§2) The percentage of viable cells was determined using The CellTiter 96® AQueous One Solution Cell Proliferation Assay (Promega–Cat G3580, Madison, WI, USA). Briefly, 5 × 10^3 cells/well of MCF-7 or MDA-MB-231 were plated in a 96 well culture plate in a total volume of 100 µL/well. The next day, cells were treated with 0.16, 0.8, 4, and 20 µM of NSC 13030, 24198, 57774, 137420, or DMSO as control. After 48 h, 20 µL of CellTiter 96 AQuoeus one solution reagent was added in each well, and incubated for 4 h in a CO2 incubator at 37 °C. The percentage of living cells was calculated by dividing the OD (490 nm) of treated cells by the same concentration of DMSO controls. All conditions were done in triplicates.

MDA-MB-231 [3] = experiment: Cell proliferative assay (DAPI cell count); format: cell-based; settings: at 20 μM, 48 h, in comparison with the vehicle
Procedure: as §1

MDA-MB-231 [4] = experiment: Cell viability assay (CellTiter 96 AQueous One); format: cell-based; settings: at 20 μM, 48 h
Procedure: as §2

## COc1ccc2nc3cc(Cl)ccc3c(SC(CC(=O)O)C(=O)O)c2c1 (centres unmarked) [Compound 13030]
SHP2; at 100 μM compound
  inhibition at 100 µM: 98%
SHP2
  IC50: 3.2 µM
SHP1
  IC50: 85.4 µM
MCF-7 [1]
  reduction of MCF-7 proliferation: 42.1%
MCF-7 [2]
  reduction of MCF-7 viability: 64.4%

## O=C(O)CSC(Nc1ccccc1C(=O)O)c1ccccc1 (centres unmarked) [Compound 24198]
SHP2; at 100 μM compound
  inhibition at 100 µM: 99%
SHP2
  IC50: 1.9 µM
SHP1
  IC50: 14.3 µM
MCF-7 [1]
  reduction of MCF-7 proliferation: 34.7%
MCF-7 [2]
  reduction of MCF-7 viability: 65.2%

## Cc1c2oc3c(C)ccc(C(=O)O)c3nc-2c(C(=O)O)c(N)c1=O [Compound 57774]
SHP2; SHP2 over SHP1
  selectivity, inhibition activity towards SHP2 over SHP1: 200 fold
SHP2; at 100 μM compound, 100 µM
  inhibition of SHP2 enzyme: complete SHP2 inhibition
SHP2
  IC50: 0.8 µM
SHP1
  IC50: 164 µM
MCF-7 [1]
  reduction of MCF-7 proliferation: 74.5%
MDA-MB-231 [3]
  reduction of MDA-MB-231 proliferation: 64%
MCF-7 [2]
  reduction of MCF-7 viability: 65.8%
MDA-MB-231 [4]
  reduction of MDA-MB-231 viability: 36.2%

## O=C(c1ccccc1)c1ccc2c(Cl)ccc(C(=O)O)c2c1C(=O)O [Compound 137420]
SHP2; at 100 μM compound
  inhibition at 100 µM: 71%
SHP2
  IC50: 33 µM

## Cc1ccc(C(=O)Nc2ccc(S(=O)(=O)O)c3cc(S(=O)(=O)O)cc(S(=O)(=O)O)c23)cc1NC(=O)c1cccc(NC(=O)Nc2cccc(C(=O)Nc3cc(C(=O)Nc4ccc(S(=O)(=O)O)c5cc(S(=O)(=O)O)cc(S(=O)(=O)O)c45)ccc3C)c2)c1 [Suramin, reference compound]
SHP2; at 100 μM compound
  inhibition at 100 µM: 79%
SHP2
  IC50: 4.5 µM
SHP1
  IC50: 15.4 µM
